From PubChem BioAssay (NCI)
Values joined by “and” are separate entries in the source; they are usually repeats but may differ in a detail not shown here. Equal entries are not always repeated.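 Cells were grown in 96-well plates and exposed to each compound for 48 hours at five concentrations; endpoints were interpolated linearly between bracketing concentrations, or set to the highest concentration if not reached. GI50 is the concentration that inhibits growth by half. TGI denotes the concentration required for complete inhibition of growth.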

How the values were obtained:
Assay in all cases: NCI-60 cell line screen, 48 h
[1] = system: DU-145 prostate
[2] = system: MALME-3M melanoma
[3] = system: NCI-H23 lung
[4] = system: OVCAR-5 ovarian
[5] = system: OVCAR-8 ovarian
[6] = system: PC-3 prostate
[7] = system: UACC-257 melanoma
[8] = system: UACC-62 melanoma
[9] = system: CAKI-1 renal
[10] = system: MOLT-4 leukemia

Compound	GI50 [1] [µM]	TGI [1]	GI50 [2] [µM]	TGI [2]	GI50 [3] [µM]	TGI [3]	GI50 [4] [µM]	TGI [4] [µM]	GI50 [5] [µM]	TGI [5]	GI50 [6] [µM]	TGI [6]	GI50 [7] [µM]	TGI [7]	GI50 [8] [µM]	TGI [8]	GI50 [9] [µM]	TGI [9]	GI50 [10] [µM]	TGI [10] [µM]
Cc1ccc(NCCNCC(C)(C)O)c2c(=O)c3ccc(Cl)cc3sc12	1.67	3.08 µM	1.59	3.23 µM	1.53	3.03 µM	1.47	2.95	1.77	3.32 µM	1.35	2.71 µM	1.93	3.44 µM	1.81	3.42 µM	–	–	–	–
CN1C2C=CC(=O)C1C1C(=O)N(c3ccccc3)C(=O)C12 (stereo not drawn)	2.34	6.69 µM	–	–	13.2	37.1 µM	5.95	21.6	4.22	20.3 µM	5.8	47.3 µM	2.42	7.47 µM	11.5	24.3 µM	1.66	4.27 µM	5.99	> 100
CCCCCCCCCCCC/C=C\CC[C@@H](O)[C@H](O)CC[C@H](O)[C@@H]1CC[C@@H](CCCCCCCC2=C[C@H](C)OC2=O)O1	–	–	–	31.2 µM	2.19	29.9 µM	–	38.4	8.16	38 µM	2.22	16.5 µM	1.94	4.21 µM and 19.6 µM	–	6.45 µM	–	35.7 µM	1.72	4.88
COc1cc(C2CC(c3ccccc3)=NN2C=O)ccc1Oc1ccnc2cc(Cl)ccc12 (stereo not drawn)	> 100	> 100 µM	–	–	4.82	> 100 µM	> 100	> 100	4.91	> 100 µM	2.8	> 100 µM	–	–	6.76	> 100 µM	5.2	> 100 µM	–	–
CC(C)(O)C1COC2=C1C(=O)c1ccccc1C2=O (stereo not drawn)	–	43.5 µM	–	–	–	38.8 µM	–	54	–	84.6 µM	–	> 100 µM	–	> 100 µM	–	42.9 µM	–	> 100 µM	–	71.2
CC(C)=C[C@@H]1C[C@H](C)[C@H]2CC[C@H](C)c3c(O)c(OC4OC(C)C(O)C(O)C4O)c(C)c1c32 (stereo partly drawn)	10.9	23.3 µM	12.9	29.8 µM	2.21	20 µM	10.5	23.2	14.6	28 µM	–	–	14.2	27.3 µM	–	–	14.5	28.7 µM	8.35	23.9
CC[C@H](C)[C@H](NC(=O)[C@H]1CCCCN1C)C(=O)N(C)[C@H](CCc1nc(C(=O)N[C@@H](Cc2ccccc2)C[C@H](C)C(=O)O)cs1)C(C)C	0.389	> 25 µM	–	–	0.565	> 25 µM	1.82	> 25	0.61	> 25 µM	0.367	> 25 µM	> 25	> 25 µM	0.0861	> 25 µM	–	–	0.138	> 25
Clc1ccc(C=Nc2ccc(-c3nc4ccccc4[nH]3)cc2)cc1	> 100	> 100 µM	> 100	> 100 µM	> 100	> 100 µM	> 100	> 100	> 100	> 100 µM	> 100	> 100 µM	> 100	> 100 µM	> 100	> 100 µM	> 100	> 100 µM	–	–
CC(C)c1ccc(O)c(Cc2cc(C(C)C)cc(Cc3cc(C(C)C)ccc3O)c2O)c1	–	–	–	2.82 µM	–	3.15 µM	–	3.13	–	4.18 µM	–	–	–	3.41 µM	–	8.48 µM	–	2.91 µM	–	4.68
FC(F)(F)c1ccccc1C1SCc2nc3ccccc3n21 (stereo not drawn)	–	–	–	> 100 µM	–	> 100 µM	–	> 100	–	> 100 µM	–	–	–	> 100 µM	–	> 100 µM	–	> 100 µM	–	> 100
O=C(O)CNc1ccc2c(c1)Cc1cc(Br)ccc1-2	–	82.4 µM	–	> 67.9 µM	–	49.3 µM	–	> 73.1	–	> 100 µM	–	> 100 µM	–	72.7 µM	–	76.4 µM	–	98.4 µM	–	–
COC(=O)[C@@]12OC[C@]34[C@H]([C@@H](O)[C@@H]1O)[C@@]1(C)CC(=O)C(O)=C(C)[C@@H]1C[C@H]3OC(=O)[C@H](OC(=O)/C=C(\C)C(C)C)[C@@H]24	0.02	0.0451 µM and 0.0293 µM	–	0.00498 µM and 0.0263 µM	–	0.015 µM and 0.0688 µM	–	–	–	0.0406 µM and 0.0561 µM	0.02	0.0512 µM and 0.0128 µM and 0.028 µM	–	0.0316 µM and 0.0305 µM	–	0.0131 µM and 0.023 µM	–	0.055 µM and 0.0295 µM and 0.159 µM	–	–
Cc1cc(NCCCCCCCNc2cc(C)nc3cc(N)ccc23)c2ccc(N)cc2n1	–	–	–	> 100 µM	–	> 100 µM	–	> 100	–	> 100 µM	–	–	–	> 100 µM	–	> 100 µM	–	> 100 µM	–	> 100
CCOc1ccc2nc(NC(=O)C(=O)C3C(=O)C(CC4C(=O)c5ccccc5C4=O)C(=O)CC3(C)C)sc2c1 (stereo not drawn)	–	> 100 µM	–	–	–	> 100 µM	–	> 100	–	> 100 µM	–	> 100 µM	–	> 100 µM	–	> 100 µM	–	> 100 µM	–	90.4
